# Source: patent US20250084101A1, “COMPOUND FOR INHIBITING AND DEGRADING IRAK4, AND PHARMACEUTICAL COMPOSITION AND PHARMACEUTICAL APPLICATION THEREOF” (XIZANG HAISCO PHARMACEUTICAL CO., LTD., priority 2022, published 2025)
# Tests used:
# [1] = biological target: T1, IRAK4 protein (Homo sapiens, UniProt Q9NWZ3); assay: IRAK4 degradation activity in hPBMC cells (24 hours); format: cell-based; conditions: 100 nM, relative to vehicle control
# T1 construct: endogenous in cells; host or cells: human peripheral blood mononuclear cells (hPBMC) from healthy volunteers
# T1 sequence (Q9NWZ3 1-460): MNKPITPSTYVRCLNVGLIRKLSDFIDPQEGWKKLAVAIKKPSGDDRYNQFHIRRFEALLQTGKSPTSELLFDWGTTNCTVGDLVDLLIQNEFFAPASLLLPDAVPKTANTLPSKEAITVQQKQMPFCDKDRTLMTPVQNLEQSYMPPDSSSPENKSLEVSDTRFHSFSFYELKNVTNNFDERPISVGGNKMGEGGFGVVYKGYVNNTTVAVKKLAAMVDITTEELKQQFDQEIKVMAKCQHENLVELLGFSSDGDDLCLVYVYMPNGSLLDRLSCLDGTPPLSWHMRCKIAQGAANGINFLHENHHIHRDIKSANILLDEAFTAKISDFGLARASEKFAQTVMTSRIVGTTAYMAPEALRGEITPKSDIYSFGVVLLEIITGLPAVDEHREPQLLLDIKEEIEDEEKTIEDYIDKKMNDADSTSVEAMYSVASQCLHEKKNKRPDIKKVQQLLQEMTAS
# Protocol: hPBMC cells are human peripheral blood mononuclear cells. Peripheral venous blood was taken from healthy volunteers, and hPBMCs were isolated using Ficoll density gradient centrifugation (Ficoll-Paque™ PLUS 1.077, GE, Cat. 17-1140-02). Culture conditions: RPMI-1640+10% FBS+1% penicillin-streptomycin solution. The cells were cultured in an incubator at 37° C. and 5% CO2. The cells were plated in a 24-well plate at 1×10^6 cells/well. After plating, compounds at different concentrations were added, and the cells were cultured in an incubator at 37° C. and 5% CO2 for 24 hours. After the culture was completed, the cells were collected, and RIPA lysis buffer (beyotime, Cat. P0013B) was added. The cells were lysed on ice for 20 minutes, and then centrifuged at 12000 rpm at 4° C. for 10 minutes. The protein sample of the supernatant was collected, the protein was quantified using a BCA kit (Beyotime, Cat. P0009), and then the protein was diluted to 1 mg/mL. The expression of IRAK4 (CST, Cat. 4363S) and the internal reference cofilin (CST, Cat. 5175S) were detected using a fully automated western blot quantitative analyzer (Proteinsimple). The expression level of IRAK4 relative to the internal reference was calculated using compass software. The remaining IRAK4 protein IRAK4% relative to the vehicle control group at different doses was calculated using formula (1), and the IRAK4 protein degradation relative to the vehicle control group at different doses was calculated using formula (2), where IRAK4administration was the expression level of IRAK4 in the administration groups at different doses, and IRAK4vehicle was the expression level of IRAK4 in the vehicle control group. An IRAK4 degradation-drug concentration curve was fit using Graphpad Prism 8 software, and the DC50 was calculated.
# [2] = Pharmacokinetic test in mice; format: in vivo, ICR mice; conditions: male, ICR, mouse, plasma, po, 10 mg/kg, i.g. 10 mg/kg, read-out: AUC0-t
# Protocol: Experimental animals: Male ICR mice, about 25 g, 6 mice/compound, purchased from Chengdu Ddossy Experimental Animals Co., Ltd.
# Test design: On the day of the experiment, 6 ICR mice were randomly grouped according to their body weights. The animals were fasted with water available for 12 to 14 h one day before the administration, and were fed 4 h after the administration.
# • Vehicle for intravenous administration: 5% DMA+5% Solutol+90% Saline; • Vehicle for intragastric administration: 5% DMSO+30% PEG400+65% (20% SBE-CD); (DMSO: dimethyl sulfoxide; DMA: dimethylacetamide; Solutol: polyethylene glycol-15-hydroxystearate; PEG400: polyethylene glycol 400; SBE-β-CD: sulfobutyl-β-cyclodextrin; Saline: physiological saline)
# Before and after the administration, 0.15 mL of blood was taken from the orbit of the animals under isoflurane anesthesia and placed in an EDTAK2 centrifuge tube. The blood was centrifuged at 5000 rpm and 4° C. for 10 min to collect plasma. The blood collection time points for the intravenous administration group and intragastric administration group were 0 min, 5 min, 15 min, 30 min, 1 h, 2 h, 4 h, 7 h and 24 h. Before analysis and detection, all samples were stored at −60° C. The samples were analyzed quantitatively by LC-MS/MS.
# [3] = biological target: T2, hERG potassium ion channel (Homo sapiens, UniProt Q12809); assay: Effect on hERG potassium ion channel (manual patch-clamp, CHO cells); format: cell-based; conditions: CHO cells stably expressing hERG, whole cell patch-clamp; read-out: IC50 for inhibitory effect on hERG potassium channel current
# T2 construct: expressed in transfected cells; host or cells: CHO (Chinese hamster ovary) cells stably expressing hERG
# T2 sequence (Q12809 whole entry): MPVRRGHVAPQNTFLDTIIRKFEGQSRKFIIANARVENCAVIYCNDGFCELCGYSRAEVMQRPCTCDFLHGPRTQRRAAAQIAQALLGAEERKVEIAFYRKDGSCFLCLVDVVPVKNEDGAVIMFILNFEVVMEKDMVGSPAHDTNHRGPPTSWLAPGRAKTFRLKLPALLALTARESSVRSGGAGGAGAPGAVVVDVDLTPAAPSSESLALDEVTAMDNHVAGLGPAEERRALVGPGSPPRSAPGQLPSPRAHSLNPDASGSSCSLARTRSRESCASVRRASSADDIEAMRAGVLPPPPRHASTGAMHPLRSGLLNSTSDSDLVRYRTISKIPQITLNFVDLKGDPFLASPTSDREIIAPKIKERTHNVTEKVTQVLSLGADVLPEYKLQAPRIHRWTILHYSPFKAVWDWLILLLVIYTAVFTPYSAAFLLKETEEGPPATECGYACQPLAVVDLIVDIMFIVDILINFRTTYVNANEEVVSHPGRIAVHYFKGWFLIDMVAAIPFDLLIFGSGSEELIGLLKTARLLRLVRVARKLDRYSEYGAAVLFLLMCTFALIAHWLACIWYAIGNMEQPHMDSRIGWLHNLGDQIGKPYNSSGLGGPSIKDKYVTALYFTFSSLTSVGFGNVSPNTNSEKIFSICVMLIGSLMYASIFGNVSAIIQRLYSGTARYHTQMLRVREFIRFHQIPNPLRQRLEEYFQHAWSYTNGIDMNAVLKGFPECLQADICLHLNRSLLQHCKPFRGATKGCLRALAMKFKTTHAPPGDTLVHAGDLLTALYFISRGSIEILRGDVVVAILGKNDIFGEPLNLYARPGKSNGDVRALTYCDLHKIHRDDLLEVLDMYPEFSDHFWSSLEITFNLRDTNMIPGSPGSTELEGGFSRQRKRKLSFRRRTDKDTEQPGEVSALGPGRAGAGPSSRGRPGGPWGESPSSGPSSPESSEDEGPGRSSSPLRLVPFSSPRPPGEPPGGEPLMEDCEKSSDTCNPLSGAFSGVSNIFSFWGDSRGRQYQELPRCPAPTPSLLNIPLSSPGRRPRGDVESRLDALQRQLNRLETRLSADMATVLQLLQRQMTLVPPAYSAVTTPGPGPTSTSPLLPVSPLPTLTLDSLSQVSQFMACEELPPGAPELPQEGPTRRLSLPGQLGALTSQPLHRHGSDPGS
# Description: Experimental platform: electrophysiological manual patch-clamp system
# Cell line: Chinese hamster ovary (CHO) cell line stably expressing hERG potassium ion channel
# Experimental method: In CHO (Chinese Hamster Ovary) cells stably expressing hERG potassium channel, whole cell patch-clamp technique was used to record hERG potassium channel current at room temperature. The glass microelectrode was made of a glass electrode blank (BF150-86-10, Sutter) by a puller. The tip resistance after filling the liquid in the electrode was about 2-5 MQ. The glass microelectrode can be connected to the patch-clamp amplifier by inserting the glass microelectrode into an amplifier probe. The clamping voltage and data recording were controlled and recorded by the pClamp 10 software through a computer. The sampling frequency was 10 kHz, and the filtering frequency was 2 kHz. After the whole cell records were obtained, the cells were clamped at −80 mV, and the step voltage that induced the hERG potassium current (lhERG) was depolarized from −80 mV to +20 mV for 2 s, then repolarized to −50 mV, and returned to −80 mV after 1 s. This voltage stimulation was given every 10 s, and the administration process was started after the hERG potassium current was confirmed to be stable (at least 1 minute). The compound was administered for at least 1 minute at each test concentration, and at least 2 cells (n≥2) were tested at each concentration.
# Data processing: Data analysis processing was carried out by using pClamp 10, GraphPad Prism 5 and Excel software. The inhibition degree of hERG potassium current (peak value of hERG tail current induced at −50 mV) at different compound concentrations was calculated by the following formula:
# [formula] • where Inhibition % represents the percentage of inhibition of hERG potassium current by the compound, and l and lo represent the amplitude of hERG potassium current after and before the administration, respectively.
# Compound IC50 was calculated using GraphPad Prism 5 software by fitting according to the following equation:
# [formula] • where X represents the Log value of the tested concentration of the test sample, Y represents the inhibition percentage at the corresponding concentration, and Bottom and Top represent the minimum and maximum inhibition percentage, respectively.
compound,measurement,setting,value
Cn1nc(C2CCC(=O)NC2=O)c2cccc(C#CCO[C@H]3CCN(C[C@H]4CC[C@H](n5cc(NC(=O)c6cnn7ccc(N8C[C@H]9C[C@@H]8CO9)nc67)c(C(F)F)n5)CC4)C[C@H]3F)c21 (stereo partly drawn) [Compound 11],Remaining IRAK4 protein IRAK4%,[1],A (A ≤ 10%)
same,AUC(0-t),[2],8750 ± 4650 ng·h/mL
same,IC50,[3],> 30 µM
